Test results reported in US20100081693A1, “T[…] AND USE THEREOF” (priority 2006, published 2010).
Like-named read-outs stand apart in the source and are kept apart here.

What was measured:
Type in all cases: in vivo
tobacco whitefly = assay: Test Example 3: spray test on tobacco whitefly larvae on cabbage; details: 168 h, sprayed on cabbage at 20 ml/cup, hatched larvae, seven days after spraying, read-out: Controlling value (%)
cotton aphids [1] = assay: Test Example 2: soil immersion treatment of cucumber, cotton aphids inoculated afterwards; details: 144 h, 500 ppm test solution (5 ml + 40 ml water), aphids inoculated after 7 days, counted 6 days later, 25° C., read-out: Controlling value (%)
Protocol: Into a beer cup were poured 5 ml of the test diluted solution and 40 ml of water, where a cucumber planted in a polyethylene cup and grown to develop a first true leaf was accommodated, and the soil part was subjected to immersion-treatment. The plant was retained in a greenhouse at 25° C. for 7 days, 30 cotton aphids (all stages) were inoculated on a cucumber leaf surface, the plant was further retained in a greenhouse at 25° C. for 6 days, the number of surviving worms of cotton aphids parasitized on the leaf surface was investigated, and a controlling value was calculated according to the following equation.
(§1) Controlling value (%)={1−(Cb×Tai)/(Cai×Tb)}×100
(§2) Cb is the number of worms before treatment of a non-treated group.
(§3) Cai is the number of worms at observation of a non-treated group.
(§4) Tb is the number of worms before treatment of a treated group.
(§5) Tai is the number of worms at observation of a treated group.

Tetranychus urticae = assay: Test Example 4: spray test on Tetranychus urticae on vineless common bean; details: 192 h, read-out: Controlling rate (%)
Protocol: Each of present compounds (1) to (3), (5), (17), (39), (55) to (57), (120) to (124), (129), (130), (135), (136), (139) to (141), (232), (236), (243), (255), (262), and the comparative compound (A) was formulated into a preparation according to Preparation Example 5. This preparation was diluted with water so that the concentration of the present compound or the comparative compound (A) became 500 ppm.
Meanwhile, about 60 Tetranychus urticae female imagoes were released on a vineless common bean plantlet (7 days after seeding, first leaf development phase) planted in a plastic cup, which was allowed to stand for 1 day. To this plantlet was sprayed 20 ml of each of the above diluted solutions.
Eight days after spraying, the number of surviving mites on a leaf of the vineless common bean was investigated, and a controlling rate was calculated according to the following equation.
Controlling rate (%)=100×{1−(number of surviving mites of treated group)/(number of surviving mites of non-treated group)}

cotton aphids [2] = assay: Test Example 1: spray test on cotton aphids parasitized on cucumber; details: 144 h; 500 ppm active ingredient, sprayed on cucumber at 20 ml/cup, six days after spraying; read-out: Controlling value (%)
Protocol: On the other hand, a cucumber was planted in a polyethylene cup, and grown until a first true leaf was developed, and 30 cotton aphids were parasitized thereon. One day after, the test spray solution was sprayed to the cucumber at a ratio of 20 ml/cup. Six days after spraying, the number of cotton aphids was investigated, and a controlling value was calculated according to the following equation.
as §1, §2, §3, §4, §5

[3] = 500 ppm, 20 ml sprayed on common bean plantlet, female imagoes, eight days after spraying

Row | Compound | pest or weed control at 500 ppm (tobacco whitefly) [%] | pest or weed control at 500 ppm (cotton aphids [1]) [%] | pest or weed control at 500 ppm (Tetranychus urticae; [3]) [%] | further results
1 | CN(C)C(=O)Sc1nsc(OCc2ccc(C(F)(F)F)cc2C(F)(F)F)n1 [(112)] | ≥ 90 |  |  | 
2 | CC1(C)OCC(COc2nc(SC(=O)N3CCOCC3)ns2)O1 (stereo not shown) [(119)] | ≥ 90 |  |  | 
3 | CCCOc1nc(SC(=O)N2CCOCC2)ns1 [(120)] | ≥ 90 |  |  | 
4 | CCOc1nc(SC(=O)N2CCOCC2)ns1 [(122)] | ≥ 90 |  |  | 
5 | CC#CCOc1nc(SC(=O)N2CCOCC2)ns1 [(125)] |  | ≥ 90 |  | 
6 | O=C(Sc1nsc(OCC2CCOC2)n1)N1CCOCC1 (stereo not shown) [(127)] |  | ≥ 90 |  | 
7 | O=C(Sc1nsc(OCC2COCO2)n1)N1CCOCC1 (stereo not shown) [(129)] |  | ≥ 90 | ≥ 90 | 
8 | O=C(Sc1nsc(OC2COCOC2)n1)N1CCOCC1 [(130)] |  | ≥ 90 | ≥ 90 | 
9 | COc1nc(SC(=O)N2CCCC2)ns1 [(135)] |  |  | ≥ 90 | 
10 | CCOc1nc(SC(=O)N2CCCC2)ns1 [(136)] |  |  | ≥ 90 | 
11 | O=C(Sc1nsc(Cl)n1)N1CCCC1 [(147)] |  | ≥ 90 |  | 
12 | CCOC(CCOc1nc(SC(=O)N(C)C)ns1)OCC [(201)] | ≥ 90 | ≥ 90 |  | pest or weed control at 500 ppm (cotton aphids [2]): ≥ 90%
13 | CN(C)C(=O)Sc1nsc(OCCCOc2nc(SC(=O)N(C)C)ns2)n1 [(204)] |  |  |  | pest or weed control at 500 ppm (cotton aphids [2]): ≥ 90%
14 | CN(C)C(=O)Sc1nsc(OCCCCOc2nc(SC(=O)N(C)C)ns2)n1 [(206)] | ≥ 90 |  |  | 
15 | CN(C)C(=O)Sc1nsc(OCc2ccccc2)n1 [(211)] | ≥ 90 |  |  | pest or weed control at 500 ppm (cotton aphids [2]): ≥ 90%
16 | CN(C)C(=O)Sc1nsc(OCc2ccccn2)n1 [(215)] | ≥ 90 |  |  | 
17 | Cc1nn(C)c(Oc2nc(SC(=O)N(C)C)ns2)c1C [(218)] |  | ≥ 90 |  | 
18 | CN(C)C(=O)Sc1nsc(OCCOc2nc(SC(=O)N(C)C)ns2)n1 [(225)] |  |  |  | pest or weed control at 500 ppm (cotton aphids [2]): ≥ 90%
19 | CN(C)C(=O)Sc1nsc(OCCOCC(F)(F)F)n1 [(232)] |  |  | ≥ 90 | 
20 | COCC(C)Oc1nc(SC(=O)N(C)C)ns1 (stereo not shown) [(236)] |  |  | ≥ 90 | 
21 | COCCOc1nc(SC(=O)N2CCCC2)ns1 [(243)] |  |  | ≥ 90 | 
22 | C=CCOc1nc(SC(=O)N(C)C)ns1 [(255)] |  |  | ≥ 90 | 
23 | C[C@H](Oc1nc(SC(=O)N2CCCC2)ns1)[C@H]1COC(C)(C)O1 [(262)] |  |  | ≥ 90 | 
24 | COCC(COc1nc(SC(=O)N(C)C)ns1)OC (stereo not shown) [(277)] |  | ≥ 90 |  | 
25 | CCCOc1nc(OC(=O)N(C)C)ns1 [comparative compound (A), reference compound] | 0 |  |  | pest or weed control at 500 ppm (Tetranychus urticae): 0%
